These results are taken from PubChem BioAssay (NCI).

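A five-concentration, 48-hour dose response in 96-well plates underlies each endpoint, interpolated linearly between surrounding concentrations. Abbreviation: GI50, concentration required for 50% inhibition of growth. TGI is the concentration that stops growth completely.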

Test systems include A549 NSCLC; COLO 205 colon; DU-145 prostate; HOP-62 NSCLC; HS 578T breast; MDA-MB-231 breast; PC-3 prostate; SF-539 CNS; SK-MEL-2 melanoma; SNB-75 CNS.
Common to all, as to experiment: inhibition of tumour cell growth, NCI panel, 48 h

As for `CC(=O)Oc1ccc(/C(=C(\C)c2ccc(Cl)cc2)c2ccc(OCCN3CCCCC3)cc2)cc1`, the GI50 is 1.94 µM in the assay on A549 NSCLC; 1.79 µM in the assay with COLO 205 colon; 1.92 µM in the assay with DU-145 prostate; 2.05 µM in the assay on HOP-62 NSCLC; 2.14 µM in the assay with HS 578T breast; 2.04 µM with MDA-MB-231 breast. The GI50 with PC-3 prostate was 1.74 µM; with SF-539 CNS, 1.84 µM; with SK-MEL-2 melanoma, 1.85 µM; in the assay with SNB-75 CNS it was 1.55 µM. Besides, the TGI came out at 4.15 µM in the assay on A549 NSCLC; 3.5 µM in the assay with COLO 205 colon; 3.83 µM in the assay on DU-145 prostate; 4.23 µM in the assay with HOP-62 NSCLC; 4.82 µM with HS 578T breast; 3.89 µM in the assay on MDA-MB-231 breast. Also, the TGI with PC-3 prostate turned out to be 3.88 µM; with SF-539 CNS, 3.57 µM; with SK-MEL-2 melanoma, 3.56 µM; in the assay on SNB-75 CNS, 3.77 µM.

Regarding `O=C1OCC2=C1C(c1ccc(Cl)c(Cl)c1)c1cc3c(cc1N2CCO)CCC3` (stereo not given), the GI50 in the assay with A549 NSCLC was 0.195 µM; in the assay with COLO 205 colon, 0.175 µM; in the assay on DU-145 prostate, 0.203 µM; in the assay on HOP-62 NSCLC, 0.229 µM; with HS 578T breast, 0.232 µM; in the assay on MDA-MB-231 breast, 0.747 µM. Further, the GI50 is 0.163 µM with PC-3 prostate, 0.147 µM in the assay with SF-539 CNS, 0.192 µM in the assay with SK-MEL-2 melanoma and 0.134 µM in the assay with SNB-75 CNS. Further, the TGI in the assay with A549 NSCLC came to 8.04 µM; with COLO 205 colon, 0.702 µM; in the assay on DU-145 prostate, 6.56 µM; in the assay on HOP-62 NSCLC, 9.26 µM; in the assay on HS 578T breast it was 14.3 µM; in the assay with MDA-MB-231 breast, 9.36 µM. Further, the TGI with PC-3 prostate stood at 8.76 µM; in the assay on SF-539 CNS, 3.32 µM; in the assay with SK-MEL-2 melanoma, 6.89 µM; in the assay on SNB-75 CNS, 11.7 µM.

For `CCCCCCCCCCCCOC1C(CNC(=O)C2OC3OC(C)(C)OC3C2NC(=O)Nc2ccc(CC(=O)NC(Cc3ccccc3)C(=O)O)cc2)OC2OC(C)(C)OC21` (stereo not given), the GI50 in the assay on A549 NSCLC was above 25 µM; in the assay with COLO 205 colon, above 25 µM; in the assay on DU-145 prostate it was above 25 µM; with HOP-62 NSCLC, above 25 µM; in the assay on HS 578T breast, 9.2 µM; in the assay with MDA-MB-231 breast, above 25 µM. Further, the GI50 in the assay on PC-3 prostate, in the assay with SF-539 CNS, with SK-MEL-2 melanoma and with SNB-75 CNS was above 25 µM each time. The TGI in the assay on A549 NSCLC, in the assay on COLO 205 colon, with DU-145 prostate, in the assay on HOP-62 NSCLC, in the assay with HS 578T breast and with MDA-MB-231 breast was above 25 µM throughout. For the same compound, the TGI with PC-3 prostate, in the assay on SF-539 CNS, with SK-MEL-2 melanoma and in the assay with SNB-75 CNS was above 25 µM throughout.

For the compound `CN(Cc1cc(Cl)cc(Cl)c1O)Cc1c(O)ccc2ccccc12`, the TGI with A549 NSCLC was determined as 62.3 µM; in the assay with COLO 205 colon, 32 µM; in the assay on DU-145 prostate, 46.2 µM; in the assay on HOP-62 NSCLC, 38.7 µM; with HS 578T breast, 44.4 µM; in the assay on MDA-MB-231 breast, 32.2 µM. Moreover, the TGI in the assay on PC-3 prostate is 30.7 µM; in the assay on SF-539 CNS, 38.5 µM; in the assay on SK-MEL-2 melanoma, 35.8 µM; in the assay with SNB-75 CNS it was 33.3 µM.

For the compound `COc1ccc(-n2ccnc2-c2cc(OC)c(OC)c(OC)c2)cc1`, the GI50 with A549 NSCLC is 6.57 µM; in the assay with COLO 205 colon, 1.33 µM; with DU-145 prostate, 6.66 µM; in the assay on HOP-62 NSCLC it was 3.59 µM; in the assay with HS 578T breast, 2.08 µM; in the assay with MDA-MB-231 breast, 6.13 µM. Moreover, the GI50 with PC-3 prostate is 3.3 µM; with SF-539 CNS, 3.27 µM; with SK-MEL-2 melanoma, 7.27 µM; with SNB-75 CNS it was 2.19 µM. Further, the TGI in the assay on A549 NSCLC was above 100 µM; in the assay on COLO 205 colon, 5.74 µM; in the assay with DU-145 prostate, above 100 µM; in the assay with HOP-62 NSCLC, above 100 µM; with HS 578T breast, 8.29 µM; with MDA-MB-231 breast, above 100 µM. The TGI was above 100 µM in the assay with PC-3 prostate, 29.1 µM with SF-539 CNS, above 100 µM with SK-MEL-2 melanoma and 6.31 µM with SNB-75 CNS.

Consider `O=C(Nc1ccccc1)c1cc(S(=O)(=O)Nc2nc3ccccc3o2)c(SCc2ccccc2)cc1Cl`, for which the GI50 in the assay on A549 NSCLC is 21 µM; in the assay with COLO 205 colon it was 36.7 µM; in the assay with DU-145 prostate, 16.5 µM; in the assay on HOP-62 NSCLC, 20.2 µM; with HS 578T breast, 14.5 µM; in the assay on MDA-MB-231 breast, 18.3 µM. For the same compound, the GI50 is 21.7 µM with PC-3 prostate, 15.8 µM in the assay on SF-539 CNS, 23.6 µM in the assay with SK-MEL-2 melanoma and 25.3 µM in the assay on SNB-75 CNS. Besides, the TGI in the assay on A549 NSCLC is 53.8 µM; in the assay on COLO 205 colon it was above 100 µM; with DU-145 prostate, 32.4 µM; with HOP-62 NSCLC, 42.5 µM; in the assay on HS 578T breast, 44.3 µM; in the assay with MDA-MB-231 breast it was 42.4 µM. In addition, the TGI was found to be 46.7 µM in the assay on PC-3 prostate, 31.1 µM in the assay with SF-539 CNS, 57.3 µM in the assay with SK-MEL-2 melanoma and 66.9 µM with SNB-75 CNS.
